From PubChem BioAssay (NCI) come the findings set out here.

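Grown in 96-well plates, cells were treated for 48 hours with each compound at five concentrations. Insufficient inhibition: endpoint recorded as highest concentration tested. At the TGI there is no net growth.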 Where only a bound is given, the exact number is not on record here.

Some test systems named below: CCRF-CEM leukemia; UACC-257 melanoma; RXF 393 renal; HL-60(TB) leukemia; MALME-3M melanoma; M14 melanoma; SF-539 CNS; SN12C renal; UO-31 renal; NCI-H522 lung; A549 NSCLC; ACHN renal; A498 renal; MOLT-4 leukemia; HOP-62 NSCLC; OVCAR-5 ovarian; EKVX NSCLC.
Common to all, as to test: NCI anticancer screen, dose series, 48 h

For `NC(=S)Nc1nnc(-c2ccc(-c3nnc(NC(N)=S)o3)cc2)o1`, the TGI with CCRF-CEM leukemia, in the assay with UACC-257 melanoma, in the assay on RXF 393 renal, with HL-60(TB) leukemia, in the assay on MALME-3M melanoma and with M14 melanoma was above 100 µM each time. In addition, the TGI in the assay with SF-539 CNS, in the assay on SN12C renal, in the assay with UO-31 renal, in the assay on NCI-H522 lung, in the assay on A549 NSCLC and with ACHN renal was above 100 µM in each case. Further, the TGI in the assay on A498 renal, in the assay with MOLT-4 leukemia, with HOP-62 NSCLC, in the assay with OVCAR-5 ovarian and with EKVX NSCLC was above 100 µM throughout.
For the molecule `CN(C)c1cccc(-c2cc(=O)c3cc4c(cc3[nH]2)OCO4)c1`, the TGI was above 100 µM in the assay on CCRF-CEM leukemia; above 100 µM in the assay on UACC-257 melanoma; 0.859 µM in the assay with RXF 393 renal; 2.23 µM with HL-60(TB) leukemia; 0.461 µM in the assay on M14 melanoma; 0.756 µM in the assay with SF-539 CNS. Further, the TGI in the assay with SN12C renal is above 100 µM; with UO-31 renal, above 100 µM; with NCI-H522 lung, 0.275 µM; in the assay with ACHN renal it was above 37 µM; in the assay on A498 renal, 4.58 µM; in the assay with MOLT-4 leukemia it was above 100 µM. Besides, the TGI in the assay on HOP-62 NSCLC was above 73.9 µM; with OVCAR-5 ovarian, 0.92 µM; in the assay with EKVX NSCLC, above 100 µM.
In the case of `BrC12C3C4C5C(C(C43)C13OCCO3)C52` (stereo not given), the TGI in the assay with CCRF-CEM leukemia, in the assay with UACC-257 melanoma, in the assay with RXF 393 renal, in the assay on HL-60(TB) leukemia, in the assay on MALME-3M melanoma and in the assay on SF-539 CNS was above 100 µM throughout. Also, the TGI with UO-31 renal, in the assay on NCI-H522 lung, in the assay on A549 NSCLC, with ACHN renal, in the assay on A498 renal and with MOLT-4 leukemia was above 100 µM in each case. The TGI in the assay with HOP-62 NSCLC, with OVCAR-5 ovarian and with EKVX NSCLC was above 100 µM each time.
`Cc1nc2c(s/c(=N\N)n2-c2ccccc2)c(=O)[nH]1`: the TGI in the assay with CCRF-CEM leukemia, in the assay on UACC-257 melanoma, with RXF 393 renal, with HL-60(TB) leukemia, with MALME-3M melanoma and in the assay with M14 melanoma was above 100 µM throughout. Also, the TGI with SF-539 CNS, in the assay on SN12C renal, with UO-31 renal, in the assay with NCI-H522 lung, in the assay with A549 NSCLC and in the assay on ACHN renal was above 100 µM throughout. The TGI with A498 renal, in the assay on MOLT-4 leukemia, in the assay with HOP-62 NSCLC, with OVCAR-5 ovarian and in the assay with EKVX NSCLC was above 100 µM in each case.
Regarding `Cc1c(C(=O)Nc2ccc(Cl)c(C(F)(F)F)c2)oc2cc(O)ccc2/c1=N\NC(N)=S`, the TGI with CCRF-CEM leukemia, with UACC-257 melanoma, in the assay with RXF 393 renal, in the assay with HL-60(TB) leukemia, in the assay on MALME-3M melanoma and with M14 melanoma was above 100 µM in each case. The TGI in the assay on SF-539 CNS, in the assay with SN12C renal, in the assay with UO-31 renal, in the assay with NCI-H522 lung, with A549 NSCLC and with ACHN renal was above 100 µM in each case. In addition, the TGI with A498 renal, in the assay with MOLT-4 leukemia, in the assay on HOP-62 NSCLC, with OVCAR-5 ovarian and in the assay on EKVX NSCLC was above 100 µM in each case.
In the case of `Cc1cccc(NC(=O)CSc2nnc(Cc3ccccc3)o2)c1`, the TGI in the assay on CCRF-CEM leukemia, in the assay with UACC-257 melanoma, in the assay on RXF 393 renal, with HL-60(TB) leukemia, in the assay with MALME-3M melanoma and in the assay on M14 melanoma was above 100 µM in each case. For the same molecule, the TGI in the assay on SF-539 CNS, with SN12C renal, with UO-31 renal, in the assay on NCI-H522 lung, with A549 NSCLC and in the assay with ACHN renal was above 100 µM throughout. The TGI in the assay on A498 renal, in the assay with MOLT-4 leukemia, with HOP-62 NSCLC, in the assay with OVCAR-5 ovarian and in the assay with EKVX NSCLC was above 100 µM throughout.
For `O=C(/C=C(\O)C(=O)O)/C=C(\O)c1ccccc1Cl`, the TGI in the assay on CCRF-CEM leukemia, in the assay on UACC-257 melanoma, in the assay with RXF 393 renal, with HL-60(TB) leukemia, with MALME-3M melanoma and in the assay on M14 melanoma was above 100 µM throughout. Besides, the TGI in the assay with SF-539 CNS, in the assay on SN12C renal, in the assay on UO-31 renal, in the assay on NCI-H522 lung, in the assay with A549 NSCLC and with ACHN renal was above 100 µM in each case. In addition, the TGI with A498 renal, in the assay on MOLT-4 leukemia, in the assay with HOP-62 NSCLC, in the assay with OVCAR-5 ovarian and with EKVX NSCLC was above 100 µM each time.
